In brackets after ≈: the same amount, converted by molar mass. Where two headings read alike, the source gives them in different places.
Legend:
[1] = biological target: T1, KRAS (G12D) and SOS1 (Homo sapiens, UniProt P01116, G12D); assay: KRAS::SOS1 AlphaScreen binding assay, KRAS G12D
T1 construct: KRAS (G12D) 1-169, N-terminal 6His-tag; 6His (N); purchased Xtal BioStructures, Inc. (KRAS G12D); Viva Biotech Ltd (SOS1)
Procedure: (§1) Low IC50 values in this assay setting are indicative of strong inhibition of protein-protein interaction between SOS1 and KRAS:
(§2) These assays measure the inhibitory effect of compounds on KRAS mutant protein-protein interactions using the Alpha Screen technology by Perkin Elmer.
(§3) For the chosen highest assay concentration of 100 μM, 150 nL of compound solution are transferred from a 10 mM DMSO compound stock solution. A series of eleven fivefold dilutions per compound are transferred to the assay plate, compound dilutions are tested in duplicates. DMSO are added as backfill to a total volume of 150 nL.
(§4) The assays run on a fully automated robotic system in a darkened room below 100 Lux. To 150 nl of compound dilution 10 μl of a mix including KRAS mutant protein, SOS1 (final assay concentrations see above) and GDP nucleotide (Sigma G7127; final assay concentration 10 μM) in assay buffer (1×PBS, 0.1% BSA, 0.05% Tween 20) are added into columns 1-24. After 30 minutes incubation time 5 μl of Alpha Screen bead mix in assay buffer are added into columns 1-23.
(§5) Plates are kept at room temperature in a darkened incubator. After an additional 60 minutes incubation time the signal is measured in a PerkinElmer Envision HTS Multilabel Reader using the AlphaScreen specs from PerkinElmer.
(§6) IC50 values are calculated and analyzed with Boehringer Ingelheim's MEGALAB IC50 application using a 4 parametric logistic model.

[2] = biological target: T2, KRAS (G12C) and SOS1 (Homo sapiens, UniProt P01116, C118S/C51S/C80L/G12C); assay: KRAS::SOS1 AlphaScreen binding assay, KRAS G12C
T2 construct: KRAS (G12C) 1-169, N-terminal 6His-tag for purification; 6His (N, cleaved yes)
T2 sequence (P01116 1-169 isoform P01116-2 G12C/C51S/C80L/C118S): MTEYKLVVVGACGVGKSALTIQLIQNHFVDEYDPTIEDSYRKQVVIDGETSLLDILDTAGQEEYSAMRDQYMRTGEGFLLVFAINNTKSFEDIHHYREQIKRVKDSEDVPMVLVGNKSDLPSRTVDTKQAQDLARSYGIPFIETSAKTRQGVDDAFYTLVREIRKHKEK
Procedure: as §1, §2, §3, §4, §5, §6

[3] = biological target: T3, KRAS (G12V) and SOS1 (Homo sapiens, UniProt P01116, C118S/G12V); assay: KRAS::SOS1 AlphaScreen binding assay, KRAS G12V
T3 construct: KRAS (G12V) 1-169, N-terminal 6His-tag for purification; 6His (N, cleaved yes); TEV cleavage site
T3 sequence (P01116 1-169 isoform P01116-2 G12V/C118S): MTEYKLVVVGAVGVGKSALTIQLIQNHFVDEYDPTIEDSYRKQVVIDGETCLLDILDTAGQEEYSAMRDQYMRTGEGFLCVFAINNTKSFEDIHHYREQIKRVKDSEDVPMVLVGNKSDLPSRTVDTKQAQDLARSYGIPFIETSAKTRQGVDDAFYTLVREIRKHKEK
Procedure: as §1, §2, §3, §4, §5, §6

[4] = biological target: KRAS G12D Ba/F3 cells (Homo sapiens, UniProt P01116, G12D, cells depend on it); assay: Ba/F3 proliferation assay, KRAS G12D; format: cell-based; settings: 72 h, AlamarBlue, read-out: KRAS G12D Ba/F3 IC50
Chain of KRAS G12D Ba/F3 cells (P01116 whole entry G12D, canonical isoform): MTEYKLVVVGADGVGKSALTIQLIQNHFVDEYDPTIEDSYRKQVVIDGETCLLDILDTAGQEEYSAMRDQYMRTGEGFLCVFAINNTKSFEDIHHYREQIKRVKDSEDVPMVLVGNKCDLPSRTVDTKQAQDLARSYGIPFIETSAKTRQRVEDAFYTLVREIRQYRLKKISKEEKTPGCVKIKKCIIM
Procedure: (§7) To generate KRASG12-dependent Ba/F3 models, Ba/F3 cells are transduced with retroviruses containing vectors that harbor KRASG12 isoforms. Platinum-E cells (Cell Biolabs) are used for retrovirus packaging. Retrovirus is added to Ba/F3 cells. To ensure infection, 4 μg/mL polybrene is added and cells are spinfected. […] Cells with an infection efficiency of 10% to 20% are further cultivated and puromycin selection with 1 μg/mL is initiated. As a control, parental Ba/F3 cells are used to show selection status. Selection is considered successful when parental Ba/F3 cells cultures died. To evaluate the transforming potential of KRASG12 mutations, the growth medium is no longer supplemented with IL-3. Ba/F3 cells harboring the empty vector are used as a control. Approximately ten days before conducting the experiments, puromycin is left out.
(§8) All treatments are performed in technical duplicates. […] AlamarBlue™ (ThermoFisher), a viability stain, is added and fluorescence measured in the PerkinElmer Envision HTS Multilabel Reader. The raw data are imported into and analyzed with the Boehringer Ingelheim proprietary software MegaLab (curve fitting based on the program PRISM, GraphPad Inc.).

[5] = biological target: KRAS G12C Ba/F3 cells (Homo sapiens, UniProt P01116, G12C, cells depend on it); assay: Ba/F3 proliferation assay, KRAS G12C; format: cell-based; settings: 72 h, AlamarBlue, read-out: KRAS G12C Ba/F3 IC50
Chain of KRAS G12C Ba/F3 cells (P01116 whole entry G12C): as the sequence (P01116 whole entry G12D, canonical isoform) above, with D12C counted along it
Procedure: as §7, §8

[6] = biological target: KRAS G12V Ba/F3 cells (Homo sapiens, UniProt P01116, G12V, cells depend on it); assay: Ba/F3 proliferation assay, KRAS G12V; format: cell-based; settings: 72 h, AlamarBlue, read-out: KRAS G12V Ba/F3 IC50
Chain of KRAS G12V Ba/F3 cells (P01116 whole entry G12V): as the sequence (P01116 whole entry G12D, canonical isoform) above, with D12V counted along it
Procedure: as §7, §8

[7] = system: ERK phosphorylation in NCI-H358 (KRAS G12C); assay: ERK phosphorylation assay (assay 1, NCI-H358); format: cell-based; settings: Homo sapiens; NCI-H358, assay 1, 1 h incubation; read-out: IC50 H358 pERK
Procedure: Low IC50 values in this assay setting are indicative of high potency of the compounds according to the invention. […]
The cells are incubated for 1 h at room temperature and then incubated overnight in an incubator at 37° C. and 5% CO2 in a humidified atmosphere. 60 nL compound solution (10 mM DMSO stock solution) is then added using a Labcyte Echo 550 device. […] After 20 min of incubation at room temperature with shaking, 6 μL of each lysate sample is transferred to a 384-well Proxiplate and analyzed for pERK (Thr202/Tyr204) with the AlphaLISA SureFire Ultra pERK1/2 (Thr202/Tyr204) Assay Kit. 3 μL Acceptor Mix and 3 μL Donor Mix are added under subdued light and incubated for 2 h at room temperature in the dark, before the signal is measured on a PerkinElmer Envision HTS Multilabel Reader. The raw data are imported into and analyzed with the Boehringer Ingelheim proprietary software MegaLab (curve fitting based on the program PRISM, GraphPad Inc.).

[8] = Solubility measurement (DMSO solution precipitation method); format: physicochemical; settings: aqueous buffer, kinetic from dmso stock
Procedure: The DMSO solution is diluted with an aqueous medium (McIlvaine buffer with pH=4.5 or 6.8) to a final concentration of 250 μM. After 24 h of shaking at ambient temperature a potentially formed precipitate is removed by filtration. The concentration of the test compound in the filtrate is determined by LC-UV methods by calibrating the signal to the signal of a reference solution with complete dissolution of the test compound in acetonitrile/water (1:1) with known concentration.

[9] = Metabolic (microsomal) stability assay, HLM; format: in vitro ADME; settings: human liver microsomes, 1 μM, predicted clearance as percent of liver blood flow
Procedure: The metabolic degradation of the test compound is assayed at 37° C. with pooled liver microsomes (mouse (MLM), rat (RLM) or human (HLM)). The final incubation volume of 48 μL per time point contains TRIS buffer (pH 7.5; 0.1 M), magnesium chloride (6.5 mM), microsomal protein (0.5 mg/mL for mouse/rat, 1 mg/mL for human specimens) and the test compound at a final concentration of 1 μM. Following a short preincubation period at 37° C., the reactions are initiated by addition of 12 μL beta-nicotinamide adenine dinucleotide phosphate, reduced form (NADPH, 10 mM) and terminated by transferring an aliquot into solvent after different time points (0, 5, 15, 30, 60 min). Additionally, the NADPH-independent degradation is monitored in incubations without NADPH, terminated at the last time point by addition of acetonitrile. The quenched incubations are pelleted by centrifugation (4,000 rpm, 15 min). An aliquot of the supernatant is assayed by LC-MS/MS to quantify the concentration of parent compound in the individual samples.
In vitro intrinsic clearance (CLint, in vitro) is calculated from the time course of the disappearance of the test drug during the microsomal incubation. Each plot is fitted to the first-order elimination rate constant as C(t)=C0*exp(−ke*t), where C(t) and C0 are the concentration of unchanged test drug at incubation time t and that at preincubation and ke is the disappearance rate constant of the unchanged drug. Subsequently, CLint, in vitro (μL min^−1·amount protein) values are converted to predicted CLint, in vivo (mL min^−1·kg^−1) from incubation parameters according to the equation CLint, in vivo=CLint, in vitro×(incubation volume (ml)/amount protein (mg))×(amount protein (mg)/g liver tissue)×(liver weight/body wt.). For better across species comparison the predicted clearance is expressed as percent of the liver blood flow [% QH](mL min^−1·kg^−1) in the individual species. In general, high stability (corresponding to low % QH) of the compounds across species is desired.

[10] = McIlvaine buffer pH 4.5, 24 h, read-out: solubility pH 4.5
[11] = McIlvaine buffer pH 6.8, 24 h, read-out: solubility pH 6.8

T1 sequence (P01116 1-169 isoform P01116-2 G12D): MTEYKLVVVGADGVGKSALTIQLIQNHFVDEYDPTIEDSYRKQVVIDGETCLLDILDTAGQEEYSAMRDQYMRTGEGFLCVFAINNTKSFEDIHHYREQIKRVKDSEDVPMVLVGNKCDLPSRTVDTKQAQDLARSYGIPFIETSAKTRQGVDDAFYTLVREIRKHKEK

Row | IC50 [1] [nM] | IC50 [2] [nM] | IC50 [3] [nM] | GI50 [4] [nM] | GI50 [5] [nM] | GI50 [6] [nM] | IC50 [7] [nM] | solubility at 24 h [8, 10] [µg/mL] | solubility at 24 h [8, 11] [µg/mL] | HLM QH [9] [%] | SMILES
1 | 9 | 14 | 11 | 961 | 940 | 6060 | 100 | > 110 | > 100 |  | C[C@H](Oc1ccnc(-c2cc([C@@]3(C)CCCc4sc(N)c(C#N)c43)no2)n1)[C@@H]1CCCN1C [Example V-25]
2 | 2 | 4 |  | 108 | 105 |  | 19 | > 110 | > 110 |  | C[C@H](Oc1ccnc(-c2cc([C@@]3(C)CCCc4sc(N)c(C#N)c43)on2)n1)[C@@H]1CCCN1C [Example V-24]
3 | 3 | 6 | 5 | 214 | 409 | 516 | 24 | > 100 | 82 (≈ 162 µM) | >95 | C[C@H]1CN(CC2CC2)CCCN1c1nccc(-c2noc([C@@]3(C)CCCc4sc(N)c(C#N)c43)n2)n1 [Example V-3]
4 | 2 | 7 |  | 79 | 95 |  |  | > 100 | 95 (≈ 193 µM) |  | CC(C)N1CCCN(c2nccc(-c3cc([C@@]4(C)CCCc5sc(N)c(C#N)c54)on3)n2)[C@@H](C)C1 [Example V-26]

Reference: US20250313553A1, “ANNULATED 2-AMINO-3-CYANO THIOPHENES AND DERIVATIVES FOR THE TREATMENT OF CANCER” (Boehringer Ingelheim Int'l GmbH Corp., priority 2021, published 2025)
